Measured values: patent publication EP2435019B1, “DODECA-2E,4E-DIENE AMIDES AND THEIR USE AS MEDICAMENTS AND COSMETICS” (Dr. August Wolff GmbH & Co. KG Arzneimittel, priority 2009, dated 2010)
Where two headings read alike, the source gives them in different places.

Tests used:
[1] = target: CB1 (Rattus norvegicus, UniProt P20272); details: Woelkart, Planta Med. 2005; cited from earlier work
[2] = system: PGE2 production; details: at 50 µM; LaLone 2007; cited from earlier work
[3] = target: T1, FAAH (Sus scrofa, UniProt Q9TUI8); assay: Fatty acid amide hydrolase (FAAH) inhibition, pig brain homogenate (assay D); type: biochemical; details: 1 µM; pig brain homogenate (assay D)
T1 construct: 165 µl of diluted pig brain homogenate; from tissue; host or cells: pig brain homogenate
T1 sequence (Q9TUI8 1-579): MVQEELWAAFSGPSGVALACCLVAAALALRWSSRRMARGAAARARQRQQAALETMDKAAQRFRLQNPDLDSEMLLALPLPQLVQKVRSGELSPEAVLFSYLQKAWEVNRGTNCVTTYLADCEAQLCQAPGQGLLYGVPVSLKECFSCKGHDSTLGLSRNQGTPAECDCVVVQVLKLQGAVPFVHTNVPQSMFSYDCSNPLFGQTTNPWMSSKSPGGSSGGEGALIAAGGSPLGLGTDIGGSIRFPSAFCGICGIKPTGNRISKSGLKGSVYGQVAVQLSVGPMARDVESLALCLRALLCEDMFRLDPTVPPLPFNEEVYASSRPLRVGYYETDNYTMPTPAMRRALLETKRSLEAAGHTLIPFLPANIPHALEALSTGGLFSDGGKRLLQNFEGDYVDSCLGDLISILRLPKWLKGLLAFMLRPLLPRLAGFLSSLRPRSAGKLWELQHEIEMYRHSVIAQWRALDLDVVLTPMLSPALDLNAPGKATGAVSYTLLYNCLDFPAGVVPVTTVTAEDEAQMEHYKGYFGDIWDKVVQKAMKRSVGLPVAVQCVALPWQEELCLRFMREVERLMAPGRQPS
Procedure: FAAH activity was assessed using pig brain homogenate according to the method described by Omeir et al., Arachidonoyl ethanolamide-[1,2-14C] as a substrate for anandamide amidase. Life Sci. 1995;56(23-24):1999-2005, and adapted by Fowler et al., Ibuprofen inhibits rat brain deamidation of anandamide at pharmacologically relevant concentrations. Mode of inhibition and structure-activity relationship. J Pharmacol Exp Ther. 1997 Nov;283(2):729-34. Briefly, 10 µl of test compounds at the adequate concentration or solvent were incubated at 37°C for 20 min with 165 µl of diluted pig brain homogenate in 10 mM Tris-HCl and 1 mM EDTA, pH 7.6 (corresponding to 100 µg/ml of total protein), 1% w/v fatty acid free BSA (Sigma, San Louis, MO, US) and 25 µl of a mixture 1:1 of nonradioactive AEA [^3H]-AEA (60 Ci mmol^-1) (concentration in the assay was 2 µM). Successively, 400 µl of a mixture 1:1 (v/v) of methanol:chloroform was added at each sample and, after vigorous vortexing, aqueous and organic phases were separated by centrifugation at 10000 rpm for 10 min. The radioactivity associated to the [^3H]-ethanolamine (produced by FAAH-catalysed breakdown of [^3H]-AEA) was measured upon addition of 3 ml of Ultima Gold scintillation liquid (Perkin Elmer, Waltham, MA, US) to 200 µl of the aqueous (upper) phase, using a Beckman LS6500 scintillation counter. Results were expressed as % of FAAH activity vs. pig brain homogenate treated only with solvent.

[4] = target: T2, CB1 (Homo sapiens, UniProt P21554); assay: Radioligand displacement assay on CB1 receptor; type: binding
T2 construct: purchased Perkin Elmer RBHCB1M
Procedure: (§1) For the CB1 receptor, binding experiments were performed in the presence of 0.39 nM of the radioligand [^3H]CP55,940 (168 Ci/mmol) (Perkin Elmer, Waltham, MA, US) at 30°C in siliconized glass vials together with 7.16 µg of membrane recombinantly over-expressing CB1 (No. RBHCB1M, Perkin Elmer, Waltham, MA, US), which was resuspended in 0.2 mL (final volume) binding-buffer (50 mM TRIS-HCl, 2.5 mM EGTA, 5 mM MgCl2, 0.5 mg/mL fatty acid free BSA, pH 7.4). Test compounds were present at varying concentrations and the nonspecific binding of the radioligand was determined in the presence of 10 µM CP55,940 (Tocris Cookson Ltd., Bristol, UK). After 1.5 h incubation, the suspension was rapidly filtered through 0.05% polyethylenimine pre-soaked GF/C glass fiber filters on a 96-well cell harvester and washed nine times with 0.5 mL ice-cold washing-buffer (50 mM TRIS-HCl, 2.5 mM EGTA, 5 mM MgCl2, 2% BSA, pH 7.4). Radioactivity on filters was measured with a Beckman LS 6500 scintillation counter in 3 mL Ultima Gold scintillation liquid (Perkin Elmer, Waltham, MA, US). Data collected from three independent experiments performed in triplicates were normalized between 100% and 0% specific binding for [^3H]CP55,940. […] Derived from the dissociation constant (KD) of [^3H]CP55,940 and the concentration-dependent displacement (IC50 value), inhibition constants (Ki) of competitor compounds were calculated using the Cheng-Prusoff equation [Ki = IC50/(1+ L/KD)].

[5] = system: Arachidonoylethanolamide Transport (AEAT); assay: Cellular uptake of [3H]-AEA in U937 cells (assay C); type: cell-based; details: Homo sapiens, U-937; [3H]-AEA uptake, assay C (Tables 2 and 3)
[6] = system: FAAH; details: cited from earlier work
[7] = system: RAW264.7 mouse macrophage cells; details: at 50 µM; LaLone 2007; cited from earlier work
[8] = Critical micelle concentration (CMC) measurement, dye micellization; type: physicochemical; details: fluorescein dye micellization in water, pH 6.9, room temperature
Procedure: Dye micellization was carried out with a modified version of the method described by Eliyahu et al., Novel dextran-spermine conjugates as transfecting agents: comparing water-soluble and micellar polymers. […] Experiments were carried out on 96-well microtiter plates (excitation at 485 nm, emission at 535 nm). Since the emission of fluorescein is pH-dependent, the pH of the mixture was kept constant at 6.9. The CMC range was determined as the concentration range where the first statistically significant increase in fluorescence was detected.

[9] = at 50 µM; Chen 2005; cited from earlier work
[10] = target: T3, CB2 (Homo sapiens, UniProt P34972); assay: Radioligand displacement assay on CB2 receptor; type: binding; set-up: purchased Perkin Elmer RBXCB2M
Procedure: as §1
For CB2-receptor binding studies 3.8 µg of membrane recombinantly over-expressing CB2 (No. RBXCB2M, Perkin Elmer, Waltham, MA, US) were resuspended in 0.6 mL binding buffer (see above) together with 0.11 nM of the radioligand [^3H]CP55,940. The CB2-binding assay was conducted in the same manner as for CB1.

[11] = system: CB2 receptors; details: Woelkart, Planta Med. 2005; cited from earlier work
[12] = target: T3, CB2; details: read-out: affinity towards CB2 receptors, Ki; Gertsch, Planta Med. 2008; cited from earlier work

T3 sequence (P34972 whole entry): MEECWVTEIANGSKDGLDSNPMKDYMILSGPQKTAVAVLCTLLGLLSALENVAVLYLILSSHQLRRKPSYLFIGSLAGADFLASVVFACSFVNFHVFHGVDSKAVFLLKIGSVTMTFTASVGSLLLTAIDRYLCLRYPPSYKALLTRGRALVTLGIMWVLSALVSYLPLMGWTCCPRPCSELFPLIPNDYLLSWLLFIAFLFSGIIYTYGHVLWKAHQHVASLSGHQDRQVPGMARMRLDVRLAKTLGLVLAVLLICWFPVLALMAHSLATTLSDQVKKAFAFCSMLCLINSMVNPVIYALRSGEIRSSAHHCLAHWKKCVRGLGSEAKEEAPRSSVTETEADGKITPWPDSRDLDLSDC
T2 sequence (P21554 whole entry): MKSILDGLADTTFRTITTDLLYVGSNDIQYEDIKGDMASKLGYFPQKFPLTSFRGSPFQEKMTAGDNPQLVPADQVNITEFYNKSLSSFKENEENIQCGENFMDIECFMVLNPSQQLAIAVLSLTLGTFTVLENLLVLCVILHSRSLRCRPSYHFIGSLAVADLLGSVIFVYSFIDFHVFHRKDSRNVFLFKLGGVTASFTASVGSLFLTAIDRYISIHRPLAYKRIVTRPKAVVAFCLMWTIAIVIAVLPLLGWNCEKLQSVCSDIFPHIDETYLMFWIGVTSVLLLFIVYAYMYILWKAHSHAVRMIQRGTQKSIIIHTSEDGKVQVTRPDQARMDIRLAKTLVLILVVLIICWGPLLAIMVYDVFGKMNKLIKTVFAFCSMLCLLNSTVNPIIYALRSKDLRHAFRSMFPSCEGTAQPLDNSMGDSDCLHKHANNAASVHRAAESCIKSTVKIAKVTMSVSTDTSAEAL
Sequence of CB1 (Rattus norvegicus, UniProt P20272) (P20272 whole entry): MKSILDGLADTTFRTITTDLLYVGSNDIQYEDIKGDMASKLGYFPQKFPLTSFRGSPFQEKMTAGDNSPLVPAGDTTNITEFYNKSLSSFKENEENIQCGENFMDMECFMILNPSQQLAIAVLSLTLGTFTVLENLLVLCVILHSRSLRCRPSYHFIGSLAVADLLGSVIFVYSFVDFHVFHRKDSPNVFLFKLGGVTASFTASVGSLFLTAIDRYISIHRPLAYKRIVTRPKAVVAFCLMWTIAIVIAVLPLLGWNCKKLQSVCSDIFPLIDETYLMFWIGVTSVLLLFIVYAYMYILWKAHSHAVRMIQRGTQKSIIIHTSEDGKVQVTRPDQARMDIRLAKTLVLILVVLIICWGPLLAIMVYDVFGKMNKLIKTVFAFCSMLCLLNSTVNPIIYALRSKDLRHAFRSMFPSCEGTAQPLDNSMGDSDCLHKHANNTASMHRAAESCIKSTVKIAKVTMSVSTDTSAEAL

CCCCCCC/C=C/C=C/C(=O)NCC(C)C [Compound A, (2E,4E)-N-isobutyldodeca-2,4-diene amide]
affinity to CB1 receptor [1]: single digit micromolar range | PGE2 production [2]: inhibiting | FAAH inhibition at 1 µM [3]: <10 % of control | Ki ([4]; displacement of 0.39 nM [3H]CP55,940, membrane recombinantly over-expressing CB1, read-out: Receptor affinity Ki CB1): 1940 ± 213 nM | affinity towards CB1 (in words) ([4]; summary of Table 3): moderate affinity | EC50 [5]: > 10000 nM | inhibition of FAAH ([6]; Gertsch, Planta Med. 2008): did not inhibit | inhibition of FAAH ([6]; Woelkart, Planta Med. 2005): very weak inhibitor | cytotoxicity [7]: No significant cytotoxicity | CMC [8]: <0.5 µM | cell death [9]: 50% | Ki ([10]; displacement of 0.11 nM [3H]CP55,940, membrane recombinantly over-expressing CB2, read-out: Receptor affinity Ki CB2): 60 ± 7 nM | affinity towards CB2 (in words) ([10]; summary of Table 3): high affinity | affinity to CB2 receptor [11]: single digit micromolar range | Ki [12]: < 100 nM
